Measured values reported in patent US11046714B2, “2,2-difluorodioxolo A2A receptor antagonists” (Merck Sharp & Dohme Corp., priority 2013, dated 2021).

Molecular target: human A2A receptor (Homo sapiens (Human), UniProt P29274)
Assay: competition binding assay using Scintillation Proximity technology
Settings: membranes from CHO-K1 cells expressing the human A2a receptor; 2.0 nM tritiated compound; Cheng-Prusoff
Procedure, shortened: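 Membranes (1.0 μg) from CHO-K1 cells expressing human A2A were treated with adenosine deaminase, then incubated 1 h at room temperature with compound (3000–0.15 nM) and 2.0 nM tritiated SCH-type ligand on WGA SPA beads in PBS plus 10 mM MgCl2. Nonspecific binding was defined with 1 μM CGS 15943. Ki was derived from EC50 via Cheng-Prusoff.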

Chain of human A2A receptor (P29274 whole entry): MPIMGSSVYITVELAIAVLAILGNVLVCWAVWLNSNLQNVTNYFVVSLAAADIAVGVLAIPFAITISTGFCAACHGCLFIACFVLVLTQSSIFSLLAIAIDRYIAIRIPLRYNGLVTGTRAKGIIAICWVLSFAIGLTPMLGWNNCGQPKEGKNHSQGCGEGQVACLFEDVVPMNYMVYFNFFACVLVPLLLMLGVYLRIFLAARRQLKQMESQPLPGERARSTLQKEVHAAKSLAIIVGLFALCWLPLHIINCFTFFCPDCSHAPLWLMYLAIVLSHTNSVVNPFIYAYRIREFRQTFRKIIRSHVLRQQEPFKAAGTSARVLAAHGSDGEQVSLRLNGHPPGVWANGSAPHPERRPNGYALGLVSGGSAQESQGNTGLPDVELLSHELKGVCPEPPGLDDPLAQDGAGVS

Q: For `Nc1nc2c3c(ccc2c2nc(CCN4CCC(F)(F)C4)nn12)OC(F)(F)O3` [Example 24, 8-[2-(3,3-difluoropyrrolidin-1-yl)ethyl]-2,2-difluoro[1,3] dioxolo[4,5-h][1,2,4]triazolo [1,5-c]quinazolin-5-amine], which Ki is on record?
A: 1.4 nM

Q: For `Nc1nc2c3c(ccc2c2nc(CCN4CC(F)(C5CC5)C4)nn12)OC(F)(F)O3` [Example 18, 8-[2-(3-cyclopropyl-3-fluoroazetidin-1-yl)ethyl]-2,2-difluoro[1,3]dioxolo[4,5-h][1,2,4]triazolo[1,5-c]quinazolin-5-amine], which Ki is on record?
A: 1.6 nM

Q: With `C[C@@H]1CC(F)(F)CN1CCc1nc2c3ccc4c(c3nc(N)n2n1)OC(F)(F)O4` [Example 25] as the compound, how does the Ki read?
A: 1.1 nM

Q: How did the Ki turn out when `Nc1nc2c3c(ccc2c2nc(CNCc4ccc(C(F)(F)F)cc4)nn12)OC(F)(F)O3` [Example 124, 2,2-difluoro-8-({[4-(trifluoromethyl)benzyl]amino}methyl)[1,3]dioxolo [4,5-h][1,2,4]triazolo[1,5-c]quinazolin-5-amine] was run?
A: 1.6 nM

Q: With `Nc1nc2c3c(ccc2c2nc(CCN4CCN(C5CCCC5)C(=O)C4)nn12)OC(F)(F)O3` [Example 49, 4-[2-(5-amino-2,2-difluoro[1,3]dioxolo[4,5-h][1,2,4]triazolo [1,5-c]quinazolin-8-yl)ethyl]-1-cyclopentylpiperazin-2-one] as the compound, how does the Ki read?
A: 1.6 nM

Q: For `Nc1nc2c3c(ccc2c2nc(CCN4C[C@H](F)[C@@H](F)C4)nn12)OC(F)(F)O3` [Example 23, 8-{2-[(3S,4S)-3,4-difluoropyrrolidin-1-yl]ethyl}-2,2-difluoro[1,3]dioxolo[4,5-h][1,2,4]triazolo[1,5-c]quinazolin-5-amine], which Ki is on record?
A: 1.6 nM

Q: `Nc1nc2c3c(ccc2c2nc(CCN4Cc5ccncc5C4)nn12)OC(F)(F)O3` [Example 11, 8-[2-(1,3-dihydro-2H-pyrrolo[3,4-c]pyridin-2-yl)ethyl]-2,2-difluoro[1,3] dioxolo[4,5-h][1,2,4]triazolo [1,5-c]quinazolin-5-amine] was tested. Which Ki did it give?
A: 2.1 nM

Q: `Nc1nc2c3c(ccc2c2nc(CCN4CC(F)(C(F)(F)F)C4)nn12)OC(F)(F)O3` [Example 21, 2,2-difluoro-8-{2-[3-fluoro-3-(trifluoromethyl)azetidin-1-yl]ethyl}[1,3]dioxolo[4,5-h][1,2,4]triazolo[1,5-c]quinazolin-5-amine] was tested. Which Ki did it give?
A: 3.4 nM

Q: With `Nc1nc2c3c(ccc2c2nc(CC4CN(C5CCC5)C4)nn12)OC(F)(F)O3` [Example 151, 8-[(1-cyclobutylazetidin-3-yl)methyl]-2,2-difluoro[1,3]dioxolo[4,5-h][1,2,4]triazolo[1,5-c]quinazolin-5-amine] as the compound, how does the Ki read?
A: 65 nM

Q: How did the Ki turn out when `CCC1(F)CN(CCc2nc3c4ccc5c(c4nc(N)n3n2)OC(F)(F)O5)C1` [Example 17, 8-[2-(3-ethyl-3-fluoroazetidin-1-yl)ethyl]-2,2-difluoro[1,3] dioxolo[4,5-h][1,2,4]triazolo [1,5-c]quinazolin-5-amine] was run?
A: 3.5 nM

Q: Which Ki does the source give for `Nc1nc2c3c(ccc2c2nc(CCN4CCC5(CCNCC5)CC4)nn12)OC(F)(F)O3` [Example 54, 8-[2-(3,9-diazaspiro[5.5]undec-3-yl)ethyl]-2,2-difluoro[1,3] dioxolo[4,5-h][1,2,4]triazolo [1,5-c]quinazolin-5-amine] here?
A: 320 nM

Q: `Nc1nc2c3c(ccc2c2nc(C4CCCN(CCC(F)(F)F)C4)nn12)OC(F)(F)O3` (single isomer, unassigned) [Example 141, (R or S)-2,2-difluoro-8-(1-(3,3,3-trifluoropropyl)piperidin-3-yl)-[1,3]dioxolo[4,5-h][1,2,4]triazolo[1,5-c]quinazolin-5-amine] was tested. Which Ki did it give?
A: 55 nM

Q: With `Nc1nc2c3c(ccc2c2nc(CCN4CC5CC4C(F)(F)C5)nn12)OC(F)(F)O3` (single isomer, unassigned) [Example 67, (R or S)-8-[2-(6,6-difluoro-2-azabicyclo[2.2.1]hept-2-yl)ethyl]-2,2-difluoro[1,3]dioxolo[4,5-h][1,2,4] triazolo[1,5-c]quinazolin-5-amine] as the compound, how does the Ki read?
A: 3.5 nM

Q: How did the Ki turn out when `CC(Cc1nc2c3ccc4c(c3nc(N)n2n1)OC(F)(F)O4)N1CC(F)(F)C1` (single isomer, unassigned) [Example 93, (R or S)-8-[2-(3,3-difluoroazetidin-1-yl)propyl]-2,2-difluoro[1,3] dioxolo[4,5-h][1,2,4]triazolo[1,5-c] quinazolin-5-amine] was run?
A: 4.8 nM

Q: `CC1CCN(CCc2nc3c4ccc5c(c4nc(N)n3n2)OC(F)(F)O5)CC1` [Example 38, 2,2-difluoro-8-[2-(4-methylpiperidin-1-yl)ethyl][1,3]dioxolo[4,5-h][1,2,4]triazolo[1,5-c]quinazolin-5-amine] was tested. Which Ki did it give?
A: 27 nM

Q: `Nc1nc2c3c(ccc2c2nc(CC4CCN(CCC(F)(F)F)C4)nn12)OC(F)(F)O3` (single isomer, unassigned) [Example 154, (R or S)-2,2-difluoro-8-{[1-(3,3,3-trifluoropropyl)pyrrolidin-3-yl]methyl}[1,3]dioxolo[4,5-h][1,2,4]triazolo[1,5-c]quinazolin-5-amine] was tested. Which Ki did it give?
A: 20 nM

Q: For `Nc1nc2c3c(ccc2c2nc(C[C@H](N)C4CC4)nn12)OC(F)(F)O3` [Example 158, 8-[(2S)-2-amino-2-cycloproplethyl]-2,2-difluoro[1,3]dioxolo[4,5-h][1,2,4]triazolo[1,5-c]quinazolin-5-amine], which Ki is on record?
A: 19 nM

Q: Which Ki does the source give for `Nc1nc2c3c(ccc2c2nc(CN4CCC(F)(F)C4)nn12)OC(F)(F)O3` [Example 116, 8-[(3,3-difluoropyrrolidin-1-yl)methyl]-2,2-difluoro[1,3]dioxolo[4,5-h][1,2,4] triazolo[1,5-c]quinazolin-5-amine] here?
A: 1.8 nM

Q: For `CC1(F)CN(Cc2nc3c4ccc5c(c4nc(N)n3n2)OC(F)(F)O5)C1` [Example 111, 2,2-difluoro-8-[(3-fluoro-3-methylazetidin-1-yl)methyl][1,3] dioxolo[4,5-h][1,2,4]triazolo[1,5-c]quinazolin-5-amine], which Ki is on record?
A: 1.4 nM

Q: `Nc1nc2c3c(ccc2c2nc([C@H]4CC[C@@H](N5CCCC(F)(F)C5)C4)nn12)OC(F)(F)O3` [Example 161, 8-[(1S,3R)-3-(3,3-difluoropiperidin-1-yl)cyclopentyl]-2,2-difluoro[1,3]dioxolo[4,5-h][1,2,4]triazolo[1,5-c]quinazolin-5-amine] was tested. Which Ki did it give?
A: 32 nM

Q: With `C[C@@H]1CC[C@@H](C)N1CCc1nc2c3ccc4c(c3nc(N)n2n1)OC(F)(F)O4` [Example 34, 8-{2-[(2R,5R)-2,5-dimethylpyrrolidin-1-yl]ethyl}-2,2-difluoro[1,3]dioxolo[4,5-h][1,2,4]triazolo[1,5-c]quinazolin-5-amine] as the compound, how does the Ki read?
A: 11 nM

Q: For `Nc1nc2c3c(ccc2c2nc(C4CCCN(c5cccc(F)c5)C4)nn12)OC(F)(F)O3` (single isomer, unassigned) [Example 142, (R or S)-2,2-difluoro-8-[1-(3-fluorophenyl)piperidin-3-yl][1,3]dioxolo[4,5-h][1,2,4]triazolo[1,5-c]quinazolin-5-amine], which Ki is on record?
A: 1.2 nM

Q: Which Ki does the source give for `Cc1csc(CN(CCc2nc3c4ccc5c(c4nc(N)n3n2)OC(F)(F)O5)CC2CC2)n1` [Example 60, 8-(2-{(cyclopropylmethyl)[(4-methyl-1,3-thiazol-2-yl)methyl]amino}ethyl)-2,2-difluoro[1,3]dioxolo[4,5-h][1,2,4]triazolo[1,5-c]quinazolin-5-amine] here?
A: 0.7 nM

Q: For `CC(c1nc2c3ccc4c(c3nc(N)n2n1)OC(F)(F)O4)N1C[C@H](F)[C@@H](F)C1` (single isomer, unassigned) [Example 133, (R or S)-8-{1-[(3S,4S)-3,4-difluoropyrrolidin-1-yl]ethyl}-2,2-difluoro[1,3]dioxolo[4,5-h][1,2,4]triazolo[1,5-c]quinazolin-5-amine], which Ki is on record?
A: 64 nM

Q: `Nc1nc2c3c(ccc2c2nc(CCN4CCCC(O)(C(F)(F)F)C4)nn12)OC(F)(F)O3` (single isomer, unassigned) [Example 71, (R or S)-1-(2-(5-amino-2,2-difluoro-[1,3]dioxolo[4,5-h][1,2,4]triazolo[1,5-c]quinazolin-8-yl)ethyl)-3-(trifluoromethyl)piperidin-3-ol] was tested. Which Ki did it give?
A: 3.9 nM

Q: `Cc1csc(CN(Cc2nc3c4ccc5c(c4nc(N)n3n2)OC(F)(F)O5)CC2CC2)n1` [Example 127, 8-({(cyclopropylmethyl)[(4-methyl-1,3-thiazol-2-yl)methyl]amino}methyl)-2,2-difluoro[1,3]dioxolo[4,5-h][1,2,4] triazolo[1,5-c]quinazolin-5-amine] was tested. Which Ki did it give?
A: 1.4 nM

Q: `Nc1nc2c3c(ccc2c2nc(CCN4CC(F)C4)nn12)OC(F)(F)O3` [Example 15, 2,2-difluoro-8-[2-(3-fluoroazetidin-1-yl)ethyl] [1,3]dioxolo[4,5-h][1,2,4] triazolo[1,5-c]quinazolin-5-amine] was tested. Which Ki did it give?
A: 2.5 nM

Q: `C[C@@H]1CN(CCc2nc3c4ccc5c(c4nc(N)n3n2)OC(F)(F)O5)C[C@H](C)O1` [Example 44, 8-{2-[(2R,6S)-2,6-dimethylmorpholin-4-yl]ethyl}-2,2-difluoro[1,3]dioxolo[4,5-h][1,2,4]triazolo[1,5-c]quinazolin-5-amine] was tested. Which Ki did it give?
A: 45 nM

Q: With `Nc1nc2c3c(ccc2c2nc(CCN4CC(O)(C(F)(F)F)C4)nn12)OC(F)(F)O3` [Example 20, 1-[2-(5-amino-2,2-difluoro [1,3]diozolo[4,5-h][1,2,4]triazolo[1,5-c]quinazolin-8-yl)ethyl]-3-(trifluoromethyl) azetidin-3-ol] as the compound, how does the Ki read?
A: 12 nM

Q: With `CC1(F)CCCN(CCc2nc3c4ccc5c(c4nc(N)n3n2)OC(F)(F)O5)C1` (single isomer, unassigned) [Example 65, (R or S)-2,2-difluoro-8-[2-(3-fluoro-3-methylpiperidin-1-yl)ethyl][1,3] dioxolo[4,5-h][1,2,4]triazolo[1,5-c] quinazolin-5-amine] as the compound, how does the Ki read?
A: 4.2 nM

Q: How did the Ki turn out when `Nc1nc2c3c(ccc2c2nc(CCN4CCCC(O)(C(F)(F)F)C4)nn12)OC(F)(F)O3` (single isomer, unassigned) [Example 70, (R or S)-1-(2-(5-amino-2,2-difluoro-[1,3]dioxolo[4,5-h][1,2,4]triazolo[1,5-c]quinazolin-8-yl)ethyl)-3-(trifluoromethyl)piperidin-3-ol] was run?
A: 5.2 nM
